Patent publication US10829496B2, “Thienopyridines and benzothiophenes useful as IRAK4 inhibitors” (BRISTOL-MYERS SQUIBB COMPANY, priority 2017, dated 2020)

Columns and labels:
[1] = target: IRAK4 (Homo sapiens (Human), UniProt Q9NWZ3); experiment: IRAK4 Inhibition Assay; format: biochemical; conditions: ATP 500 μM; IRAK4 0.6 nM; 60 min at room temperature
Method: The assays were performed in U-bottom 384-well plates. The final assay volume was 30 μL prepared from 15 μL additions of enzyme and substrates (fluoresceinated peptide and ATP) and test compounds in assay buffer (20 mM HEPES pH 7.2, 10 mM MgCl2, 0.015% Brij 35 and 4 mM DTT). The reaction was initiated by the combination of IRAK4 with substrates and test compounds. The reaction mixture was incubated at room temperature for 60 min. and terminated by adding 45 μL of 35 mM EDTA to each sample. The reaction mixture was analyzed on the Caliper LABCHIP® 3000 (Caliper, Hopkinton, Mass.) by electrophoretic separation of the fluorescent substrate and phosphorylated product. Inhibition data were calculated by comparison to no enzyme control reactions for 100% inhibition and vehicle-only reactions for 0% inhibition. The final concentrations of reagents in the assays are ATP, 500 μM; FL-IPTSPITTTYFFFKKK peptide 1.5 μM; IRAK4, 0.6 nM; and DMSO, 1.6%.

[2] = tested on: IL-6 levels in human whole blood stimulated with a TLR2 agonist; experiment: IRAK4 Whole Blood Assay (TLR2 agonist lipoteichoic acid-stimulated IL-6); format: cell-based; conditions: 10 μg/mL lipoteichoic acid, 5 hours, IL-6 readout
Method: Human whole blood containing the anti-coagulant ACD-A was plated in 384-well plate (25 μL/well) and incubated with compounds for 60 minutes at 37° C. in a 5% CO2 incubator. The blood was stimulated with a TLR2 agonist, 10 μg/mL final concentration of lipoteichoic acid (Invivogen, San Diego, Calif.) in 25 μL RPMI (Gibco) for 5 hours in a 5% CO2 incubator. At the end of the incubation, plates were centrifuged at 2300 rpm for 5 minutes. Supernatants were harvested and analyzed for IL-6 levels by Flow Cytometry beads assay (BD Biosciences, San Jose, Calif.).

[3] = Caco-2 Permeability Assay; format: in vitro ADME; conditions: human, 3 μM compound, 2 hours at 37° C., direction not given
Method: Caco-2 Permeability Assay
Thirteen to 27 days prior to assay, Caco-2 cells were seeded onto collagen-coated polycarbonate filter membranes in 24-well transwell plates at a density of 1.45×10^5 cells/cm^2, approximately 4.8×10^4 cells per well. The cells were grown in a culture medium consisting of DMEM supplemented with 10% fetal bovine serum, 10 mM HEPES, 1% nonessential amino acids, 2 mM L-glutamine, 100 U/mL penicillin-G, and 100 μg/mL streptomycin. The culture medium was replaced every 3 days and the cells were maintained at 37° C. in a 95% relative humidity and 5% CO2 atmosphere. The cells were evaluated for tight junction formation just prior to assay. The test compound was solubilized to 10 mM in 100% DMSO and diluted to 3 μM in assay buffer. Permeability studies were initiated by adding 200 μL assay buffer plus/minus compound to the apical transwell compartment and 600 μL assay buffer plus/minus compound to the basolateral compartment of the 24-well transwell low-binding cluster plate. For apical-to-basolateral (A to B) permeability (absorptive direction), buffer containing compound was placed in the apical compartment (donorwells), while buffer alone was placed in the corresponding basolateral compartments (receiverwells). For basolateral-to-apical (B to A) permeability (secretive direction), buffer containing compound was placed in the basolateral compartment (donor wells), while buffer alone was placed in the corresponding apical compartments (receiver wells). Transwells were then incubated for 2 hours at 37° C. in a 95% relative humidity and 5% CO2 atmosphere with gentle agitation. Following incubation, 100 μL was removed from each apical and basolateral compartment and transferred to 96-well low binding plates that had been previously loaded with 100 μL/well of acetonitrile containing 250 nM propranolol, 250 nM diclofenac, and 500 nM tolbutamide as internal standards. The samples were subsequently analyzed by LC-MS/MS to determine concentrations of compound.

Sequence of IRAK4 (Q9NWZ3 whole entry): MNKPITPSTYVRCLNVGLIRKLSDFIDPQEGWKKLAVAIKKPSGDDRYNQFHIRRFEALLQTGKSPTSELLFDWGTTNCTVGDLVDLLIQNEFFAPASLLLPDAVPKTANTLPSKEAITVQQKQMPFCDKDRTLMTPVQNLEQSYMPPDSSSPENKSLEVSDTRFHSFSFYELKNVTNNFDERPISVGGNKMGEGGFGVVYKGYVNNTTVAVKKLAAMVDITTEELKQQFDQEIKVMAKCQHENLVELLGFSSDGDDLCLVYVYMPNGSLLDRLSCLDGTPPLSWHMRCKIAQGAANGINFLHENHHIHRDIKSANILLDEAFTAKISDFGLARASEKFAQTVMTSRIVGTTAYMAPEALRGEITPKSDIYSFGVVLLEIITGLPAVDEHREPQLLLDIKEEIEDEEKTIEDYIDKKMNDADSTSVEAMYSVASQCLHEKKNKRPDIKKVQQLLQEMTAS

IC50 [1] [nM] | EC50 [2] [nM] | Papp at 2 h, 3 µM [3] [×10⁻⁶ cm/s] | Molecule
0.7 | 92 | 4.2 | CC[C@H]1[C@@H](COc2csc3cc(C(N)=O)c(OC)nc23)NC(=O)[C@@H]1F [Example 8, 3-(((2S,3S,4R)-3-ethyl-4-fluoro-5-oxopyrrolidin-2-yl)methoxy)-5-methoxythieno[3,2-b]pyridine-6-carboxamide]
558 |  |  | COc1cc2c(OC[C@@H]3CCC(=O)N3)csc2nc1C(N)=O [Example 3, (S)-5-Methoxy-3-((5-oxopyrrolidin-2-yl)methoxy)thieno[2,3-b]pyridine-6-carboxamide]
98.1 |  |  | CCC1C[C@@H](COc2csc3cc(C(N)=O)c(OC)nc23)NC1=O (single isomer, unassigned) [Example 16]
615 |  |  | COc1nc2c(OCC3COCC(=O)N3)csc2cc1C(N)=O (racemic) [Example 7, 5-methoxy-3-((5-oxomorpholin-3-yl)methoxy)thieno[3,2-b]pyridine-6-carboxamide]
63.4 |  |  | CCC1C[C@@H](COc2csc3cc(C(N)=O)c(OC)nc23)NC1=O (single isomer, unassigned) [Example 15]
1 | 3210 | 8.1 | CC[C@@H]1CC(=O)N[C@@H]1COc1csc2cc(C(N)=O)c(OC)nc12 [Example 6, 3-(((2S,3R)-3-ethyl-5-oxopyrrolidin-2-yl)methoxy)-5-methoxythieno[3,2-b]pyridine-6-carboxamide]
128 |  |  | COc1nc2c(OC[C@@H]3CCC(=O)N3)c(C)sc2cc1C(N)=O [Example 25, (S)-5-methoxy-2-methyl-3-((5-oxopyrrolidin-2-yl)methoxy)thieno[3,2-b]pyridine-6-carboxamide]
459 |  |  | COc1nc2c(OC[C@@H]3CC(C)C(=O)N3)csc2cc1C(N)=O (single isomer, unassigned) [Example 14]
20.3 | 2010 |  | COc1nc2c(OC[C@@H]3CCC(=O)N3)csc2cc1C(N)=O [Example 5, (S)-5-methoxy-3-((5-oxopyrrolidin-2-yl)methoxy)thieno[3,2-b]pyridine-6-carboxamide]
2.5 | 261 |  | COc1nc2c(OC[C@H]3NC(=O)C[C@H]3C(F)F)csc2cc1C(N)=O [Example 12, 3-(((2S,3R)-3-(difluoromethyl)-5-oxopyrrolidin-2-yl)methoxy)-5-methoxythieno[3,2-b]pyridine-6-carboxamide]
0.9 | 363 |  | CC[C@@H]1CC(=O)N[C@@H]1COc1csc2cc(C(N)=O)c(OC)cc12 [Example 29]
10.6 | 3300 | 22.5 | CC[C@@H]1CC(=O)N[C@@H]1COc1c(C)sc2cc(C(N)=O)c(OC)nc12 [Example 19, 3-(((2S,3R)-3-ethyl-5-oxopyrrolidin-2-yl)methoxy)-5-methoxy-2-methylthieno[3,2-b]pyridine-6-carboxamide]
6 | 893 |  | COc1nc2c(OC[C@H]3NC(=O)C[C@H]3C)csc2cc1C(N)=O [Example 17, 5-methoxy-3-(((2S,3R)-3-methyl-5-oxopyrrolidin-2-yl)methoxy)thieno[3,2-b]pyridine-6-carboxamide]

Further lines, the molecule ahead of its results:

Molecule | IC50 [1] [nM] | EC50 [2] [nM] | Papp at 2 h, 3 µM [3] [×10⁻⁶ cm/s]
3-(46S,7R)-7-ethyl-4-oxo-5-azaspiro[2.4]heptan-6-yl)methoxy)-5-methoxythieno[3,2-b]pyridine-6-carboxamide [Example 9] | 130 |  | 
CC[C@@H]1[C@H](F)C(=O)N[C@@H]1COc1csc2cc(C(N)=O)c(OC)nc12 [Example 2, 3-(((2S,3S,4S)-3-Ethyl-4-fluoro-5-oxopyrrolidin-2-yl)methoxy)-5-methoxythieno[3,2-b]pyridine-6-carboxamide] | 1.2 | 205 | 7.3
COc1nc2c(OC[C@@H]3CC(C)C(=O)N3)csc2cc1C(N)=O (single isomer, unassigned) [Example 13] | 36.2 |  | 
CC[C@H]1[C@@H](COc2csc3cc(C(N)=O)c(OC)nc23)NC(=O)C1(F)F [Example 1, 3-(((2S,3S)-3-Ethyl-4,4-difluoro-5-oxopyrrolidin-2-yl)methoxy)-5-methoxythieno[3,2-b]pyridine-6-carboxamide] | 0.6 | 58 | 10.2
COc1nc2c(OC[C@@H]3C[C@@H](F)C(=O)N3)csc2cc1C(N)=O [Example 11, 3-(((2S,4R)-4-fluoro-5-oxopyrrolidin-2-yl)methoxy)-5-methoxythieno[3,2-b]pyridine-6-carboxamide] | 4 | 473 | 
CC[C@@H]1OC(=O)N[C@@H]1COc1csc2cc(C(N)=O)c(OC)nc12 [Example 26, 3-(((4R,5S)-5-ethyl-2-oxooxazolidin-4-yl)methoxy)-5-methoxythieno[3,2-b]pyridine-6-carboxamide] | 6.8 |  | 3.5
CC[C@@H]1[C@H](F)C(=O)N[C@@H]1COc1c(C)sc2cc(C(N)=O)c(OC)nc12 [Example 22, 3-(((2S,3S,4S)-3-ethyl-4-fluoro-5-oxopyrrolidin-2-yl)methoxy)-5-methoxy-2-methylthieno[3,2-b]pyridine-6-carboxamide] | 33.6 |  | 
CC[C@@H]1[C@H](F)C(=O)N[C@@H]1COc1csc2cc(C(N)=O)c(OC3CC3)nc12 [Example 24, 5-cyclopropoxy-3-(((2S,3S,4S)-3-ethyl-4-fluoro-5-oxopyrrolidin-2-yl)methoxy)thieno[3,2-b]pyridine-6-carboxamide] | 20.2 | > 10000 | 
COc1nc2c(OC[C@H]3NC(=O)[C@H](F)[C@H]3C3CC3)csc2cc1C(N)=O [Example 18, 3-(((2S,3S,4R)-3-cyclopropyl-4-fluoro-5-oxopyrrolidin-2-yl)methoxy)-5-methoxythieno[3,2-b]pyridine-6-carboxamide] | 2.8 | 962 | 
CC[C@@H]1[C@H](F)C(=O)N[C@@H]1COc1csc2cc(C(N)=O)c(OC)cc12 [Example 4, 3-(((2S,3S,4S)-3-ethyl-4-fluoro-5-oxopyrrolidin-2-yl)methoxy)-5-methoxybenzo[b]thiophene-6-carboxamide] | 0.4 | 153 | 8.5
COc1nc2c(OC[C@H]3NC(=O)C(F)(F)[C@H]3C)csc2cc1C(N)=O [Example 21, 3-(((2S,3S)-4,4-difluoro-3-methyl-5-oxopyrrolidin-2-yl)methoxy)-5-methoxythieno[3,2-b]pyridine-6-carboxamide] | 1.3 | 127 | 13.6
CC[C@@H]1[C@H](F)C(=O)N[C@@H]1COc1csc2cc(C(N)=O)c(OC(C)C)nc12 [Example 23, 3-(((2S,3S,4S)-3-ethyl-4-fluoro-5-oxopyrrolidin-2-yl)methoxy)-5-isopropoxythieno[3,2-b]pyridine-6-carboxamide] | 1.4 | 189 | 18.4
COc1nc2c(OC[C@H]3NC(=O)[C@H](F)[C@H]3C)csc2cc1C(N)=O [Example 27, 3-(((2S,3S,4R)-4-fluoro-3-methyl-5-oxopyrrolidin-2-yl)methoxy)-5-methoxythieno[3,2-b]pyridine-6-carboxamide] | 1.1 | 58 | 5.9
CC[C@@H]1CC(=O)N[C@@H]1COc1csc2cc(C(N)=O)c(OC3CC3)nc12 [Example 20, 5-cyclopropoxy-3-(((2S,3R)-3-ethyl-5-oxopyrrolidin-2-yl)methoxy)thieno[3,2-b]pyridine-6-carboxamide] | 19.1 | 473 | 
